{
  "source": "patent US9456997B2",
  "about": "“Selective inhibition of β1-adrenergic receptors for the treatment of pediatric heart failure” (THE REGENTS OF THE UNIVERSITY OF COLORADO, A BODY CORPORATE, priority 2010, dated 2016)",
  "key": {"[1]": {"test_system": "isoproterenol challenged young and old mice", "experiment": "Mouse model of pediatric heart failure: cardiac growth (HW/BW) in response to isoproterenol with or without β-blocker", "assay_type": "in vivo", "details": "for pathologic growth response to isoproterenol: isoproterenol 7 days, β-blocker via subcutaneously implanted pump; for heart weight to body weight ratio (HW/BW), response to ISO: older mice; for heart weight to body weight ratio (HW/BW), response to ISO / cardiac growth response to ISO (HW/BW): isoproterenol 30 mg/kg/day 7 days, β-blocker in drinking water, versus same age ISO", "procedure": "(§1) Since a primary characteristic of human heart failure is endogenous catecholamine (epinephrine and norepinephrine; full β1 and β2 receptor agonists) excess, they challenged the mice with isoproterenol (an exogeous full β1 and β2 receptor agonist) for 7 days using a subcutaneous miniosmotic pump at a dose (30 mg/kg/day) that has previously been associated with cardiac hypertrophy in adult mice and has been used as a model of cardiac hypertrophy and heart failure in adult […]. Higher doses (120 mg/kg/day) for 14 days cause a dilated heart failure phenotype, providing further evidence that this is an appropriate HF model. Half the animals received the isoproterenol treatment and the other half were treated with placebo pumps filled with normal saline and vitamin C, the vehicle that the isoproterenol is dissolved in. The young and old animals were divided into 2 studies: one for carvedilol treatment and one for metoprolol treatment (the study design for each animal study is illustrated in FIG. 8). […] The amount of water consumed was measured on a daily basis and all groups consumed similar amounts of water. In a second study to further support hypothesis (i) above and provide evidence of a class effect among β1-selective antagonists, young mice were divided into 2 studies one for bisoprolol and one for nebivolol. […] After 7 days of treatment, the hearts were removed and assessed for cardiac growth in response to isoproterenol with or without the β-blocker. Protein was isolated from the hearts of young and old mice in the presence or absence of isopreterenol without any β-blocker treatment assessed for phosphorylation of phospholamban by Western blot as outlined above."}, "[2]": {"test_system": "β1 and β2 receptors", "details": "cited from earlier work; for β1 receptor selectivity: in words"}, "[3]": {"test_system": "HF patients (adult population)", "details": "cited from earlier work"}, "[4]": {"test_system": "children with heart failure", "details": "Pediatric Carvedilol Trial, cited from earlier work"}, "[5]": {"test_system": "phospholamban (Ser16, Thr17)", "experiment": "Phospholamban phosphorylation in mouse hearts by Western blot", "assay_type": "in vivo", "details": "isoproterenol challenged versus control", "procedure": "(§2) Western blots were performed as previously described by the inventors. Antibodies for total and phosphorylated PLB were diluted 1:15000 and antibodies for total and phosphorylated Akt were diluted 1:1000 in 1×TBS (20 mM Tris 500 mM NaCl pH 7.5) containing 3% BSA and 0.1% tween and incubated with the blot overnight at 4° C.\nas §1"}, "[6]": {"test_system": "Akt", "experiment": "Phosphorylation of Akt in young mouse hearts by Western blot", "assay_type": "in vivo", "details": "young mice, heart, one week of treatment, versus placebo", "procedure": "as §2\n(§3) To address hypothesis (iv) above a third study was performed in the young mice to provide evidence of the beneficial effects of exogenous β2-selective agonism with fenoterol. […] The methodology was identical to that outlined in the carvedilol and metoprolol studies above. Protein was isolated from the placebo, fenoterol and isoproterenol treated mouse hearts and phosphorylation of Akt and expression of Caspase 3 was determined to confirm the beneficial effects of fenoterol treatment."}, "[7]": {"test_system": "caspase 3", "experiment": "Caspase 3 levels in young mouse hearts by Western blot", "assay_type": "in vivo", "details": "young mice, heart, one week of treatment, versus placebo", "procedure": "as §2, §3"}, "[8]": {"test_system": "adult mouse models of myocardial infarction", "details": "adult mouse models of myocardial infarction (Ahmet, 2004; 2005; 2008); cited from earlier work"}},
  "note": "Entries after “also recorded” stand apart in the source; their conditions may differ. Read-outs that look alike come from different tables or passages of the source.",
  "data": [
    {"smiles": "OC(CNCC(O)C1CCc2cc(F)ccc2O1)C1CCc2cc(F)ccc2O1", "note": "(stereo not shown) [Nebivolol]", "values": [
      {"measurement": "pathologic growth response to isoproterenol", "setting": "[1]; young mice", "result": "significantly suppressed"},
      {"measurement": "pathologic growth response to isoproterenol", "setting": "[1]; young mice, listed as nebivolol", "result": "significant blunting"},
      {"measurement": "β1 receptor selectivity", "setting": "[2]", "result": "higher selectivity than Metoprolol"},
      {"measurement": "Mortality or Hospitalization Benefit, RR reduction", "setting": "[3]; SENIORS trial", "result": 14, "unit": "% RR"}
    ]},
    {"smiles": "COc1ccccc1OCCNCC(O)COc1cccc2[nH]c3ccccc3c12", "note": "(stereo not shown) [Carvedilol]", "values": [
      {"measurement": "heart weight to body weight ratio (HW/BW), response to ISO", "setting": "[1]", "result": "lower"},
      {"measurement": "cardiac growth response to ISO (HW/BW)", "setting": "[1]; young mice", "result": "no benefit"},
      {"measurement": "cardiac growth response to ISO (HW/BW)", "setting": "[1]; young mice, listed as Coreg", "result": "no influence"},
      {"measurement": "blockade of β2 receptors relative to β1 receptors", "setting": "[2]; β2 over β1", "result": "up to 7 times"},
      {"measurement": "Mortality Benefit, RR reduction", "setting": "[3]; CAPRICORN trial", "result": 23, "unit": "% RR"},
      {"measurement": "Mortality Benefit, RR reduction", "setting": "[3]; COPERNICUS trial", "result": 35, "unit": "% RR"},
      {"measurement": "Mortality Benefit, RR reduction", "setting": "[3]; US Coreg HF trial", "result": 65, "unit": "% RR"},
      {"measurement": "Outcome (clinical benefit)", "setting": "[4]; listed as carvedilol", "result": "lack of clinical benefit"},
      {"measurement": "Outcome (clinical benefit)", "setting": "[4]", "result": "no clinical benefit"}
    ]},
    {"smiles": "CC(C)NCC(O)COc1ccc(COCCOC(C)C)cc1", "note": "(stereo not shown) [Bisoprolol]", "values": [
      {"measurement": "pathologic growth response to isoproterenol", "setting": "[1]; young mice", "result": "significantly suppressed"},
      {"measurement": "pathologic growth response to isoproterenol", "setting": "[1]; young mice, listed as bisoprolol", "result": "significant blunting"},
      {"measurement": "β1 receptor selectivity", "setting": "[2]", "result": "higher selectivity than Metoprolol"},
      {"measurement": "Mortality Benefit, RR reduction", "setting": "[3]; CIBIS trial", "result": 32, "unit": "% RR"}
    ]},
    {"smiles": "CC(C)NCC(O)c1ccc(O)c(O)c1", "note": "(stereo not shown) [Isoproterenol, isoproterenol]", "values": [
      {"measurement": "pathologic cardiac growth produced by the agonist", "setting": "[1]; young and old mice, 30 mg/kg/day for 7 days, subcutaneous miniosmotic pump", "result": "significant pathologic cardiac growth"},
      {"measurement": "growth response elicited by the agonist", "setting": "[1]; young mice, placebo (no β-blocker) treated animals, bisoprolol and nebivolol cohorts", "result": "significant growth response"},
      {"measurement": "phospholamban phosphorylation at serine 16", "setting": "[5]; old (adult) mice", "result": "dephosphorylated; also recorded: lower"},
      {"measurement": "phospholamban phosphorylation at threonine 17", "setting": "[5]; old (adult) mice", "result": "dephosphorylated; also recorded: lower"},
      {"measurement": "phospholamban phosphorylation at serine 16", "setting": "[5]; young mice", "result": "unchanged"},
      {"measurement": "phospholamban phosphorylation at threonine 17", "setting": "[5]; young mice", "result": "unchanged"},
      {"measurement": "phosphorylation of Akt", "setting": "[6]", "result": "decreased"},
      {"measurement": "caspase 3 levels", "setting": "[7]", "result": "increased"}
    ]},
    {"smiles": "COCCc1ccc(OCC(O)CNC(C)C)cc1", "note": "(stereo not shown) [Metoprolol]", "values": [
      {"measurement": "heart weight to body weight ratio (HW/BW), response to ISO", "setting": "[1]", "result": "lower"},
      {"measurement": "cardiac growth response to ISO (HW/BW)", "setting": "[1]; young mice", "result": "blunted"},
      {"measurement": "cardiac growth response to ISO (HW/BW)", "setting": "[1]; young mice, listed as metoprolol", "result": "demonstrated benefit"},
      {"measurement": "β1 receptor selectivity", "setting": "[2]", "result": "selectively blocks the β1 receptor"},
      {"measurement": "Mortality Benefit, RR reduction", "setting": "[3]; MERIT-HF trial", "result": 34, "unit": "% RR"}
    ]},
    {"smiles": "CC(Cc1ccc(O)cc1)NCC(O)c1cc(O)cc(O)c1", "note": "(stereo not shown) [Fenoterol, fenoterol]", "values": [
      {"measurement": "phosphorylation of Akt", "setting": "[6]", "result": "induced"},
      {"measurement": "phosphorylation of Akt", "setting": "[6]; listed as fenoterol", "result": "increasing"},
      {"measurement": "caspase 3 levels", "setting": "[7]; listed as fenoterol", "result": "maintaining only basal levels; also recorded: did not induce"},
      {"measurement": "myocardial remodeling and function", "setting": "[8]", "result": "improvements in myocardial remodeling and function"}
    ]}
  ]
}
